Consider one compound from patent publication US4632922A, “Oxomorpholinyl dimer and rescue of anthracycline and mitomycin C damage” (The United States of America as represented by the …, priority 1985, dated 1986).

Series [1] deals with DOX-induced skin ulceration. In words: Rescue by DHM3 of DOX-induced skin necrosis (ulceration, induration) in swine. It is filed as in vivo, miniature white swine. How it is done:
In order to produce anthracycline induced tissue damage, clinical grade doxorubicin (DOX) hydrochloride was obtained as a representative anthracycline chemical from the Drug Synthesis Branch, Developmental Therapeutics Program, National Cancer Institute. Each vial contained 10 mg DOX hydrochloride and 50 mg lactose which was reconstituted with 5.0 ml sterile 0.9% NaCl solution to give a final drug concentration of 2.0 mg/ml. DHM3 solution was prepared by dissolving 10 mg in ice-cold water which had been purged with N2 gas for 5 minutes. Dissolution was facilitated by brief sonication to give a final concentration of 10 mg/ml. The solution was kept cold (≈4° C.) and protected from air and light.
Female weanling miniature white swine weighing approximately 12 kg were obtained from the Veterinary Resources Branch, National Institutes of Health. The development of this strain of swine has been described previously (Sachs, et al., Transplantation 22:559-567, 1976). Each animal was housed in a 6×4 ft metabolic cage and was fed standard NIH show chow, 1.5 lbs twice daily.
Each animal was anesthesized by intramuscular injections of ketamine, 20 mg/kg, xylazine, 20 mg/kg, and atropine, 1.0 mg. Following endotracheal intubation anesthesia was maintained with a mixture of nitrous oxide, halothane, and oxygen gas.
DOX HCl (2.0 mg/ml) was administered intradermally (i.d.) with a 25 gauge needle inserted approximately 4 to 5 mm into the skin. Following the injection of 0.5, 0.75 or 1.0 ml (1.0, 1.5, or 2.0 mg, respectively) DOX solution, the syringe was removed from the hub leaving the needle in place. After the indicated time interval, 1.0 ml (10 mg) DHM3 was injected through the same needle and the needle was then removed. Control sites received 1.0 ml sterile water instead of DHM3. The injection sites were along the mid-lateral aspect of each side of the swine and were 4-5 cm apart (6-8 injection sites per side). One animal was used for a dose experiment where DOX, 0.5 ml/site was injected along one side and 1.0 ml/site was injected along the contralateral side. Fifteen minutes later, DHM3 or water was injected into alternating sites as described above. A second animal received DOX, 0.75 ml/site along both sides. DHM3 or water was injected into alternating sites at times varying from 5 to 120 minutes following DOX administration.
All lesions were measured by a single observer with metric calipers three times weekly for two weeks, followed by weekly measurements thereafter. The areas of skin ulceration and induration were estimated by the product of the cross perpendicular diameters. The total toxicity of DOX-induced skin ulceration was determined by calculating the area under the ulceration-time curve (AUC) in mm^2 -days.
In order to assess the extent of tissue injury following intradermal DOX or DHM3, incisional biopsies were performed on representative lesions 6 and 20 days following drug injection. These samples were placed in 10% buffered formalin and processed for examination by standard light microscopy (Pathco Inc., Potomac, MD.).

Series [2] is described as follows: Stability of DHM3 in water upon exposure to air. It is filed as physicochemical. The protocol:
Oxazinone 2 (6.0 g, 0.019 mol) was dissolved in 500 ml of 2-propanol (Fisher). The solution was irradiated with a 450 W mercury immersion lamp through a Pyrex filter. Throughout the reacion the photochemical apparatus was immersed in a bath kept at 0° C. and nitrogen was bubbled through the solution. The disappearance of the oxazinone chromophore was monitored by UV spectroscopy. After 24 h, when the UV maximum at 323 nm had disappeared, the irradiation was stopped, and the solvent quickly rotary evaporated without delay at ambient temperature (20°-28° C.) first at 15-20 Torr, then at 1 Torr. The residue was dissolved in 70 ml of chloroform and the solution was stored in a freezer at about -18° C. for 6 days. The resulting pricipitate was collected by suction filtration, washed thoroughly with cold chloroform (≈10° C.) and dried under vaccuum to give 2.9 g (48%) of a white powder, mp 121°-124° C. An additional crop of crystals (0.64 g) was obtained from the mother liquors after two more weeks in the freezer. […] Minor peaks in the spectrum were present in areas compatible with the presence of other stereoisomers. Infrared and analytical data are as follows: IR (KBr) 3160, 2900, 1715, 1455, 1285, 1220, 1040, 770, 715 cm^-1; anal. calcd. for C14 H24 N2 O6 : C, 53.15; H, 7.65; N, 8.85. Found: C, 53.00; H, 7.70; N, 8.84. […]

The mark [3] stands for this setting: DHM3 10 mg 15 min after DOX 2.0 mg i.d.

On to `CC1(CO)COC(=O)C(C)(C2(C)NC(C)(CO)COC2=O)N1` (stereo not shown) [DHM3, bi(3,5-dimethyl-5-hydroxymethyl-2-oxomorpholin-3-yl)], for which, in series [1] (setting [3]), the “extent of skin necrosis” value was “greatly reduced”. For the same compound, the “reduction of peak area size of the ulcer” value in series [1] (setting [3]) is recorded as 80%. Also, the “time to complete healing” value in series [1] (DHM3 10 mg 15 min after DOX 2.0 mg, control 7 weeks) was at most 5 weeks. In addition, the “AUC (total toxicity of skin ulceration)” value in series [1] (DHM3 10 mg i.d. 5 min after DOX 1.5 mg i.d.) is given as 960 mm^2 . days; in series [1] (DHM3 10 mg i.d. 15 min after DOX 1.0 mg i.d., mean of 3 lesions, p < .005), 840 ± 420 mm^2 . days; in series [1] (DHM3 10 mg i.d. 15 min after DOX 1.5 mg i.d.), 2220 mm^2 . days; in series [1] (DHM3 10 mg i.d. 15 min after DOX 2.0 mg i.d., mean of 3 lesions, p < .001), 1020 ± 420 mm^2 . days; in series [1] (DHM3 10 mg i.d. 30 min after DOX 1.5 mg i.d.), 3240 mm^2 . days; in series [1] (DHM3 10 mg i.d. 60 min after DOX 1.5 mg i.d.), 4020 mm^2 . days. The “AUC (total toxicity of skin ulceration)” value in series [1] (DHM3 10 mg i.d. 90 min after DOX 1.5 mg i.d.) is 5340 mm^2 . days; in series [1] (DHM3 10 mg i.d. 120 min after DOX 1.5 mg i.d.) it was 8400 mm^2 . days. The “protection against DOX injury” value is on record as “Optimal protection” in series [1] (DHM3 5 min after DOX), “no protection is observed” in series [1] (interval greater than 60 min) and “Progressively less protection” in series [1] (interval increased to 60 min). Moreover, the “reduction of the size of surrounding induration” value in series [1] (DHM3 after DOX) is recorded as “observed to parallel the ulcer measurements”. Besides, in series [1] (DHM3 injected into DOX site), the “color change of stained skin” value is reported as “immediately changed to a rusty brown”. The “reduction of DOX induced injury” value in series [1] (DOX 1.0 mg, compared with 2.0 mg) is “similar”. Further, the “protection from skin necrosis (maximal ulcer area and time required for healing)” value in series [1] (up to 60 min after i.d. DOX) is “considerable protection”. In series [2], the “stability to air in water” value is “quickly gives rise to an absorption maximum at 310 nm, characteristic of the oxazinone”.
